Assays:
U-87 MG [1] = test: Antiproliferative activity against human U-87 MG cells assessed as suppression ratio at 50 uM by enzyme-linked immunosorbent assay relative to control; format: functional, U-87MG ATCC
SK-OV-3 [2] = test: Antiproliferative activity against human SK-OV-3 cells assessed as suppression ratio at 50 uM by enzyme-linked immunosorbent assay relative to control; format: functional
SK-OV-3 [3] = test: Antiproliferative activity against human SK-OV-3 cells assessed as suppression ratio at 5 uM by enzyme-linked immunosorbent assay relative to control; format: functional
U-87 MG [4] = test: Antiproliferative activity against human U-87 MG cells assessed as suppression ratio at 5 uM by enzyme-linked immunosorbent assay relative to control; format: functional, U-87MG ATCC
U-87 MG [5] = test: Anti-tumor activity against human U87 MG cells by CCK-8 assay; format: functional, cell-based, U-87MG ATCC
SK-OV-3 [6] = test: Anti-tumor activity against human SK-OV-3 cells assessed as inhibition rate at 140 uM by CCK-8 assay relative to control; format: functional
SK-OV-3 [7] = test: Anti-tumor activity against human SK-OV-3 cells by CCK-8 assay; format: functional, cell-based
U-87 MG [8] = test: Anti-tumor activity against human U87 MG cells assessed as inhibition rate at 140 uM by CCK-8 assay relative to control; format: functional, U-87MG ATCC

## CCn1cnc([N+](=O)[O-])c1COP(=O)(NCCCl)NCCCl
U-87 MG [1]
  inhibition at 50 µM: 11%
SK-OV-3 [2]
  inhibition at 50 µM: -2%
SK-OV-3 [3]
  inhibition at 5 µM: -16%
U-87 MG [4]
  inhibition at 5 µM: 1%

## CC(C)n1cnc([N+](=O)[O-])c1COP(=O)(NCCBr)NCCBr
U-87 MG [1]
  inhibition at 50 µM: 47%
SK-OV-3 [2]
  inhibition at 50 µM: 41%
SK-OV-3 [3]
  inhibition at 5 µM: 4%
U-87 MG [4]
  inhibition at 5 µM: 16%

## CC(C)n1cc(COP(=O)(NCCBr)NCCBr)nc1[N+](=O)[O-]
U-87 MG [1]
  inhibition at 50 µM: 68%
U-87 MG [5]
  IC50: 41 µM
SK-OV-3 [2]
  inhibition at 50 µM: 68%
SK-OV-3 [6]
  inhibition at 140 µM: 90%
SK-OV-3 [7]
  IC50: 32 µM
SK-OV-3 [3]
  inhibition at 5 µM: -16%
U-87 MG [8]
  inhibition at 140 µM: 90%
U-87 MG [4]
  inhibition at 5 µM: 30%

## CCn1cc(COP(=O)(NCCBr)NCCBr)nc1[N+](=O)[O-]
U-87 MG [1]
  inhibition at 50 µM: 43%
SK-OV-3 [2]
  inhibition at 50 µM: 32%
SK-OV-3 [3]
  inhibition at 5 µM: -3%
U-87 MG [4]
  inhibition at 5 µM: 25%

## Cn1cnc([N+](=O)[O-])c1COP(=O)(NCCBr)NCCBr
U-87 MG [1]
  inhibition at 50 µM: 55%
U-87 MG [5]
  IC50: 98 µM
SK-OV-3 [2]
  inhibition at 50 µM: 66%
SK-OV-3 [7]
  IC50: 74 µM
SK-OV-3 [3]
  inhibition at 5 µM: -4%
U-87 MG [4]
  inhibition at 5 µM: 17%

## CCCn1cnc([N+](=O)[O-])c1COP(=O)(NCCCl)NCCCl
U-87 MG [1]
  inhibition at 50 µM: 15%
SK-OV-3 [2]
  inhibition at 50 µM: 8%
SK-OV-3 [3]
  inhibition at 5 µM: -5%
U-87 MG [4]
  inhibition at 5 µM: 5%

## Cn1c(COP(=O)(NCCBr)NCCBr)cnc1[N+](=O)[O-] [EVOFOSFAMIDE]
U-87 MG [1]
  inhibition at 50 µM: 68%
U-87 MG [5]
  IC50: 61 µM
SK-OV-3 [2]
  inhibition at 50 µM: 65%
SK-OV-3 [7]
  IC50: 62 µM
SK-OV-3 [3]
  inhibition at 5 µM: 10%
U-87 MG [4]
  inhibition at 5 µM: 9%

## CCCn1cc(COP(=O)(NCCBr)NCCBr)nc1[N+](=O)[O-]
U-87 MG [1]
  inhibition at 50 µM: 35%
SK-OV-3 [2]
  inhibition at 50 µM: 20%
SK-OV-3 [3]
  inhibition at 5 µM: -32%
U-87 MG [4]
  inhibition at 5 µM: 21%

## CCCn1cnc([N+](=O)[O-])c1COP(=O)(NCCBr)NCCBr
U-87 MG [1]
  inhibition at 50 µM: 45%
SK-OV-3 [2]
  inhibition at 50 µM: 52%
SK-OV-3 [3]
  inhibition at 5 µM: 3%
U-87 MG [4]
  inhibition at 5 µM: -3%

## Cn1cc(COP(=O)(NCCBr)NCCBr)nc1[N+](=O)[O-]
U-87 MG [1]
  inhibition at 50 µM: 32%
SK-OV-3 [2]
  inhibition at 50 µM: 48%
SK-OV-3 [3]
  inhibition at 5 µM: -14%
U-87 MG [4]
  inhibition at 5 µM: 16%

## CC(C)n1c(COP(=O)(NCCBr)NCCBr)cnc1[N+](=O)[O-]
U-87 MG [1]
  inhibition at 50 µM: 23%
SK-OV-3 [2]
  inhibition at 50 µM: 10%
SK-OV-3 [3]
  inhibition at 5 µM: -15%
U-87 MG [4]
  inhibition at 5 µM: 24%

## CCn1cnc([N+](=O)[O-])c1COP(=O)(NCCBr)NCCBr
U-87 MG [1]
  inhibition at 50 µM: 39%
SK-OV-3 [2]
  inhibition at 50 µM: 59%
SK-OV-3 [3]
  inhibition at 5 µM: -11%
U-87 MG [4]
  inhibition at 5 µM: -3%

## CCCn1c(COP(=O)(NCCBr)NCCBr)cnc1[N+](=O)[O-]
U-87 MG [1]
  inhibition at 50 µM: 69%
U-87 MG [5]
  IC50: 47 µM
SK-OV-3 [2]
  inhibition at 50 µM: 77%
SK-OV-3 [6]
  inhibition at 140 µM: 90%
SK-OV-3 [7]
  IC50: 42 µM
SK-OV-3 [3]
  inhibition at 5 µM: -2%
U-87 MG [8]
  inhibition at 140 µM: 90%
U-87 MG [4]
  inhibition at 5 µM: 30%

## CC(C)n1cnc([N+](=O)[O-])c1COP(=O)(NCCCl)NCCCl
U-87 MG [1]
  inhibition at 50 µM: 10%
SK-OV-3 [2]
  inhibition at 50 µM: 16%
SK-OV-3 [3]
  inhibition at 5 µM: 11%
U-87 MG [4]
  inhibition at 5 µM: 12%

## CCn1c(COP(=O)(NCCBr)NCCBr)cnc1[N+](=O)[O-]
U-87 MG [1]
  inhibition at 50 µM: 31%
SK-OV-3 [2]
  inhibition at 50 µM: 20%
SK-OV-3 [3]
  inhibition at 5 µM: -13%
U-87 MG [4]
  inhibition at 5 µM: 25%

## Cn1cnc([N+](=O)[O-])c1COP(=O)(NCCCl)NCCCl
U-87 MG [1]
  inhibition at 50 µM: 22%
SK-OV-3 [2]
  inhibition at 50 µM: 4%
SK-OV-3 [3]
  inhibition at 5 µM: -38%
U-87 MG [4]
  inhibition at 5 µM: 13%
